Test results from ChEMBL document CHEMBL4145533, “6,7-Dimorpholinoalkoxy quinazoline derivatives as potent EGFR inhibitors with enhanced antiproliferative activities against tumor cells” (Eur J Med Chem, 2018).
The source made the active and inactive calls. The calls are words filed in the database; no cut-off is given here.

Legend:
[1] = system: A549; experiment: Induction of apoptosis in human A549 cells assessed as early apoptotic cells at 4 uM after 48 hrs by Annexin V-FITC/propidium iodide satining based FACS analysis (reference value: 2.78%); assay type: functional
[2] = system: A549; experiment: Cell cycle arrest in human A549 cells assessed as accumulation at G2/M phase at 1 uM after 48 hrs by propidium iodide satining based FACS analysis (reference value: 16.09%); assay type: functional
[3] = system: A549; experiment: Induction of apoptosis in human A549 cells assessed as necrotic cells at 2 uM after 48 hrs by Annexin V-FITC/propidium iodide satining based FACS analysis (reference value: 0.14%); assay type: functional
[4] = system: A549; experiment: Induction of apoptosis in human A549 cells assessed as necrotic cells at 3 uM after 48 hrs by Annexin V-FITC/propidium iodide satining based FACS analysis (reference value: 0.14%); assay type: functional
[5] = system: Epidermal growth factor receptor (Homo sapiens), P00533 [L858R,T790M]; experiment: Inhibition of EGF-induced EGFR L858R/T790M double mutant activation in human NCI-H1975 cells assessed as reduction in ERK1/2 phosphorylation at T202/Y204 residues at 5 uM preincubated for 2 hrs followed by EGF stimulation measured after 10 mins by Western blot analysis; assay type: cell-based
[6] = system: A549; experiment: Induction of apoptosis in human A549 cells assessed as viable cells at 1 uM after 48 hrs by Annexin V-FITC/propidium iodide satining based FACS analysis (reference value: 95.87%); assay type: functional; settings: A549, 48 h, read-out: Activity
[7] = system: A549; experiment: Induction of apoptosis in human A549 cells assessed as early apoptotic cells at 2 uM after 48 hrs by Annexin V-FITC/propidium iodide satining based FACS analysis (reference value: 2.78%); assay type: functional
[8] = system: Epidermal growth factor receptor (Homo sapiens), P00533 [L858R,T790M]; experiment: Inhibition of EGF-induced EGFR L858R/T790M double mutant activation in human NCI-H1975 cells assessed as reduction in Akt phosphorylation at S473 residue at 5 uM preincubated for 2 hrs followed by EGF stimulation measured after 10 mins by Western blot analysis; assay type: cell-based
[9] = system: Epidermal growth factor receptor (Homo sapiens), P00533 [L858R,T790M]; experiment: Inhibition of EGF-induced EGFR L858R/T790M double mutant phosphorylation at Y992 residue in human NCI-H1975 cells preincubated for 2 hrs followed by EGF stimulation measured after 10 mins by Western blot analysis; assay type: cell-based
[10] = system: A549; experiment: Cell cycle arrest in human A549 cells assessed as accumulation at S phase at 5 uM after 48 hrs by propidium iodide satining based FACS analysis (reference value: 34.45%); assay type: functional
[11] = system: A549; experiment: Induction of apoptosis in human A549 cells assessed as late apoptotic cells at 1 uM after 48 hrs by Annexin V-FITC/propidium iodide satining based FACS analysis (reference value: 1.21%); assay type: functional
[12] = system: A549; experiment: Induction of apoptosis in human A549 cells assessed as necrotic cells at 1 uM after 48 hrs by Annexin V-FITC/propidium iodide satining based FACS analysis (reference value: 0.14%); assay type: functional
[13] = target: T1, Epidermal growth factor receptor (Homo sapiens, UniProt P00533); settings: A549, at 5 µM
Description: Inhibition of EGF-induced EGFR activation in human A549 cells assessed as reduction in ERK1/2 phosphorylation at T202/Y204 residues at 5 uM preincubated for 2 hrs followed by EGF stimulation measured after 10 mins by Western blot analysis

[14] = system: A549; experiment: Induction of apoptosis in human A549 cells assessed as viable cells at 2 uM after 48 hrs by Annexin V-FITC/propidium iodide satining based FACS analysis (reference value: 95.87%); assay type: functional; settings: A549, 48 h, read-out: Activity
[15] = target: T1, Epidermal growth factor receptor; assay type: cell-based, HEK293
Description: Inhibition of recombinant human N-terminal His-tagged EGFR (1 to 645 residues) expressed in HEK293 cells by ELISA

[16] = system: A549; experiment: Induction of apoptosis in human A549 cells assessed as viable cells at 4 uM after 48 hrs by Annexin V-FITC/propidium iodide satining based FACS analysis (reference value: 95.87%); assay type: functional; settings: A549, 48 h, read-out: Activity
[17] = target: T1, Epidermal growth factor receptor; experiment: Inhibition of EGF-induced EGFR phosphorylation at Y992 residue in human A549 cells at 0.2 uM preincubated for 2 hrs followed by EGF stimulation measured after 10 mins by Western blot analysis; assay type: cell-based
[18] = system: A549; experiment: Cell cycle arrest in human A549 cells assessed as accumulation at G0/G1 phase at 1 uM after 48 hrs by propidium iodide satining based FACS analysis (reference value: 48.87%); assay type: functional
[19] = system: A549; experiment: Induction of apoptosis in human A549 cells assessed as late apoptotic cells at 3 uM after 48 hrs by Annexin V-FITC/propidium iodide satining based FACS analysis (reference value: 1.21%); assay type: functional
[20] = system: A549; experiment: Induction of apoptosis in human A549 cells assessed as early apoptotic cells at 3 uM after 48 hrs by Annexin V-FITC/propidium iodide satining based FACS analysis (reference value: 2.78%); assay type: functional
[21] = target: Epidermal growth factor receptor (Homo sapiens, UniProt P00533, T790M); experiment: Inhibition of EGFR T790M mutant (unknown origin) preincubated for 10 mins followed by TK substrate-botion addition measured after 1 hr by spectrophotometric method
[22] = target: T1, Epidermal growth factor receptor; experiment: Inhibition of EGF-induced EGFR activation in human A549 cells assessed as reduction in ERK1/2 phosphorylation at T202/Y204 residues at 0.2 uM preincubated for 2 hrs followed by EGF stimulation measured after 10 mins by Western blot analysis; assay type: cell-based
[23] = system: A549; experiment: Effect on total EGFR protein expression in human A549 cells at 0.2 to 5 uM after 2 hrs by Western blot analysis; assay type: ADME, cell-based; settings: a549, 2 h
[24] = system: A549; experiment: Cell cycle arrest in human A549 cells assessed as accumulation at G2/M phase at 5 uM after 48 hrs by propidium iodide satining based FACS analysis (reference value: 16.09%); assay type: functional
[25] = target: T1, Epidermal growth factor receptor; experiment: Inhibition of EGF-induced EGFR activation in human A549 cells assessed as reduction in STAT3 phosphorylation at 0.2 to 5 uM preincubated for 2 hrs followed by EGF stimulation measured after 10 mins by Western blot analysis; assay type: cell-based

T1 sequence (P00533 whole entry): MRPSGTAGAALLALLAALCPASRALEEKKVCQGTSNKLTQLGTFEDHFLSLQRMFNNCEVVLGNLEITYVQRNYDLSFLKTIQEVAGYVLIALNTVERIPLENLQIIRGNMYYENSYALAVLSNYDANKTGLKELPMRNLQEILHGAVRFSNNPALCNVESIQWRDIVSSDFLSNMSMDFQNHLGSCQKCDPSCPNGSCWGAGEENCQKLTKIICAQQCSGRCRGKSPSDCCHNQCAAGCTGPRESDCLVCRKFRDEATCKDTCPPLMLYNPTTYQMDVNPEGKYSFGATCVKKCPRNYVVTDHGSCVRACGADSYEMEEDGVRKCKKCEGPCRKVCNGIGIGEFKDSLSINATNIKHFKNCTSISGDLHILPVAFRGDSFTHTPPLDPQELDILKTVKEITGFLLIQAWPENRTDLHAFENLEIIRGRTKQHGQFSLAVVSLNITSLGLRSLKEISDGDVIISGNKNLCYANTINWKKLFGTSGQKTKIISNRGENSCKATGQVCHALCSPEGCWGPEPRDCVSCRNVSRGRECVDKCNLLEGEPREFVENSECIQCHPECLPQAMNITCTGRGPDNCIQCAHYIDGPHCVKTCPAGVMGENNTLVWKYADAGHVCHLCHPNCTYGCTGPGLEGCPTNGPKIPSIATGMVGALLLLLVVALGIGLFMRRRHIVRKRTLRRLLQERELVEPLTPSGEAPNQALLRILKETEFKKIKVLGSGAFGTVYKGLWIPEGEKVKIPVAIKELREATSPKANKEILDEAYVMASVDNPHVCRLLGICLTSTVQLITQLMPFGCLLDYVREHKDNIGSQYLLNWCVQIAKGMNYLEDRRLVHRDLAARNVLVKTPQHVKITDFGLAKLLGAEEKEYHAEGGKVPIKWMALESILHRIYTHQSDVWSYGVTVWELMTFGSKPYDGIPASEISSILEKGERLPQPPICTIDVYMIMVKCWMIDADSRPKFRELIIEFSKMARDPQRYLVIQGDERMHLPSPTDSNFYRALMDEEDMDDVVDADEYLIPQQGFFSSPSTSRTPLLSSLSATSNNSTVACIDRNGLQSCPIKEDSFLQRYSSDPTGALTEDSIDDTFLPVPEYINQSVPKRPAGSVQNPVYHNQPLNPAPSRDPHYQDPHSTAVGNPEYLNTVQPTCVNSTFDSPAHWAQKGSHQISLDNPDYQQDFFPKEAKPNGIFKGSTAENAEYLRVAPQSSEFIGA
Sequence of Epidermal growth factor receptor (Homo sapiens), P00533 [L858R,T790M] (P00533 whole entry T790M/L858R, looked up): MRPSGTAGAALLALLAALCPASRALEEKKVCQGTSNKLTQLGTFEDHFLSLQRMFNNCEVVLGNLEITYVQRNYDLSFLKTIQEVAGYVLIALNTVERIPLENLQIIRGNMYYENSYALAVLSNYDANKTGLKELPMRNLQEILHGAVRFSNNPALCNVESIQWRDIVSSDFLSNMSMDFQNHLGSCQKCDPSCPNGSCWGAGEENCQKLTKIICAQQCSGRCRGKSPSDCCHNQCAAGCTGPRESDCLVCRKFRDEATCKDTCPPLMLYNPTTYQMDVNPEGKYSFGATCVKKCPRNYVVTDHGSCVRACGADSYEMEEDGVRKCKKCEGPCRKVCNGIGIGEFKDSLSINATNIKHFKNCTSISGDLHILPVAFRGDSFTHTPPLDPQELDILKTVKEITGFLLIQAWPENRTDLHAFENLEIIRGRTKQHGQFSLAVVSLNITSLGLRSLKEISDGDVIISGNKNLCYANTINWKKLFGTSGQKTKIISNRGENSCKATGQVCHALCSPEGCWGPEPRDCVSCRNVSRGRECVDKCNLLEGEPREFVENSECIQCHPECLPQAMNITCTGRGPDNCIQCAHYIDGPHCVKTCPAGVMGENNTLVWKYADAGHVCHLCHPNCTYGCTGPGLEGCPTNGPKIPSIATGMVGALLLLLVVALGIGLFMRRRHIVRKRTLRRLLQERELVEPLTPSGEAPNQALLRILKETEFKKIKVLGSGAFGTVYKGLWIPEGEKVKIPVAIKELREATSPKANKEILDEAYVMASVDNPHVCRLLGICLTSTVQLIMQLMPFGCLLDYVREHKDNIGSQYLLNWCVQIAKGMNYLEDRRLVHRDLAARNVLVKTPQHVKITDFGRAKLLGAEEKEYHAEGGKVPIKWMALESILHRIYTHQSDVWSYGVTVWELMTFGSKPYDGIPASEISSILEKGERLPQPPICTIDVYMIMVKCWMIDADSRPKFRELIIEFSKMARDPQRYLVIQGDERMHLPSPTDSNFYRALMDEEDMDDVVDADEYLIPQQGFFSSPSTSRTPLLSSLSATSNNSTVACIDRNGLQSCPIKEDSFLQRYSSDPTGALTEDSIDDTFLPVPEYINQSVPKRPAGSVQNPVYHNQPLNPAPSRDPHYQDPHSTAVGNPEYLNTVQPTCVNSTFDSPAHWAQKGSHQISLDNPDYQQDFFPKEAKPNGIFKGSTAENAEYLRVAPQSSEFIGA
Sequence of Epidermal growth factor receptor (Homo sapiens, UniProt P00533, T790M) (P00533 25-1210 T790M limits assumed): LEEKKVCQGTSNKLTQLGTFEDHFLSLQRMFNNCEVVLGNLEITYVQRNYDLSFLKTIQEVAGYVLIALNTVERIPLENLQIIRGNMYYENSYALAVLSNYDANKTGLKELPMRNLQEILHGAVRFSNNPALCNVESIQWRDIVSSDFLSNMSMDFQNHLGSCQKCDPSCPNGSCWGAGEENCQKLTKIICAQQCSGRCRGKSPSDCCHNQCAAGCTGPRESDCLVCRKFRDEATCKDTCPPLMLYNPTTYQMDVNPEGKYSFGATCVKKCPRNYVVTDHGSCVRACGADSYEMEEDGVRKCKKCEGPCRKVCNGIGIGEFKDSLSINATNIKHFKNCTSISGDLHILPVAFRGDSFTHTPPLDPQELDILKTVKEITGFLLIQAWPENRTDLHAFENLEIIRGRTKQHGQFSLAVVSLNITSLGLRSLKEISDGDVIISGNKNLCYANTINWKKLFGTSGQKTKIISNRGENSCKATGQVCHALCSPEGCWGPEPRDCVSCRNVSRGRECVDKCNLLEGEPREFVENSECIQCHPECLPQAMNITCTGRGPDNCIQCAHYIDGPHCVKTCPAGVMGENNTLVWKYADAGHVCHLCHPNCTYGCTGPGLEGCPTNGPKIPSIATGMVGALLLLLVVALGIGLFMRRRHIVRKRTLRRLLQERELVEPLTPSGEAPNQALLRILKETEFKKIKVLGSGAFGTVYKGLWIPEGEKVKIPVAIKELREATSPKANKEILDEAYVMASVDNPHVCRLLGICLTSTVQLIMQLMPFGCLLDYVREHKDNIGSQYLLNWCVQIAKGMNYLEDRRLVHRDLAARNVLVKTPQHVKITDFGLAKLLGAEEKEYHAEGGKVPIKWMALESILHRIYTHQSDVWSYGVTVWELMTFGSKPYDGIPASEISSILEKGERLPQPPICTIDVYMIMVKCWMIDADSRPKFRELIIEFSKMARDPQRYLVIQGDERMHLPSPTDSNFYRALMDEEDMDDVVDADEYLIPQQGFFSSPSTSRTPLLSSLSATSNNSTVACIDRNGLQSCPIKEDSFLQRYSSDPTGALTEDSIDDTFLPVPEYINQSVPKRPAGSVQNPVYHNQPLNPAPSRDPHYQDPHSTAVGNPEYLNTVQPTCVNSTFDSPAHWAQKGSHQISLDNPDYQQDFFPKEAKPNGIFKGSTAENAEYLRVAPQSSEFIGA

With Fc1cccc(COc2ccc(Nc3ncnc4cc(OCCCN5CCOCC5)c(OCCCN5CCOCC5)cc34)cc2Cl)c1 the Activity [1] was 14.81%, the Activity [2] was 11.69% and the Activity [3] was 0.31%. For the same compound, the Activity [4] was 0.23%, the inhibition [5] was “Active” and the viability at 1 µM [6] was 92.3%. For the same compound, the Activity [7] was 4.46%, the inhibition [8] was “Active” and the inhibition [9] was “Dose-dependent effect”. The Activity [10] was 17.61%, the Activity [11] was 3.43% and the Activity [12] was 0.4%. For the same compound, the inhibition [13] was “Active”, the viability at 2 µM [14] was 87.9% and the IC50 [15] was 7 nM. The viability at 4 µM [16] was 48.4%, the inhibition [17] was “Active” and the Activity [18] was 52.91%. The Activity [19] was 8.5%, the Activity [20] was 8.52% and the IC50 [21] was 9.3 nM. The inhibition [22] was “Active”, the Activity [23] was “Non-Toxic” and the Activity [24] was 8.8%. The inhibition [25] was “inactive”.
